Test results as given in US20210330611A1, “THERAPY FOR NEUROLOGICAL DISEASES/DISORDERS” (priority 2020, published 2021).
Several values for one entry are separate records, joined by “and”; a condition that tells them apart may be missing. Identical values can stand only once. Counter-ions that a name gives are not always drawn. Like-named read-outs stand apart in the source and are kept apart here.

Legend:
[1] = tested on: primary rat microglia; assay: Cell toxicity (dead cells, size <150 μm2) in LPS assay
[2] = tested on: primary rat microglia; assay: Cell toxicity (dead cells, size <150 μm2) in coated fibrin (cFib) assay; settings: primary microglia HTS;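 note: share of dead cells sized under 150 µm2 at 10 µM in fibrin-stimulated microglia HTS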
[3] = tested on: fibrin- and LPS-induced microglia activation; assay: cells; assay type: cell-based, rat; settings: for inhibition at 10 µM: Rattus norvegicus, Microglia
[4] = tested on: fibrin-induced microglia activation; assay: Image-based assay of fibrin-induced microglia activation (HTS and dose response); assay type: cell-based, rat; settings: for IC50 / inhibition at 10 µM: Rattus norvegicus, Microglia; for inhibition at 10 µM: read-out: Fibrin % inhibition
[5] = tested on: LPS-induced microglia activation; assay: Image-based assay of LPS-induced microglia activation (HTS and dose response); assay type: cell-based, rat; settings: for IC50 / inhibition at 10 µM: Rattus norvegicus, Microglia; for inhibition at 10 µM: read-out: LPS % inhibition
[6] = tested on: primary rat microglia
[7] = primary microglia HTS, LPS stimulation, toxicity = cell size <150 μm2
[8] = fibrin stimulation, toxicity = cell size <150 μm2
[9] = quadrant by fibrin and LPS inhibition in HTS of 1907 compounds
[10] = primary microglia HTS, 10 μM, LPS assay, cell size <150 μm^2 as marker of toxicity
[11] = primary microglia HTS, 10 μM, fibrin-stimulated, cell size >800 μm^2 as marker of activation
[12] = HTS of 1907 compounds, quadrant by fibrin and LPS inhibition
[13] = primary microglia HTS, 10 μM, LPS-stimulated, cell size >800 μm^2 as marker of activation
[14] = primary microglia HTS, LPS stimulation, decreased size (<150 μm^2) as marker of toxicity
[15] = primary microglia HTS, fibrin stimulation, activation = cell size >800 μm2
[16] = primary microglia HTS, LPS stimulation, activation = cell size >800 μm2
[17] = primary microglia HTS, fibrin stimulation, compounds at 10 μM
[18] = fibrin assay, dead cells (size <150 μm2)
[19] = quadrant by fibrin and LPS inhibition, HTS at 10 μM
[20] = primary microglia HTS, LPS stimulation, compounds at 10 μM

CC(Oc1c(Cl)cccc1Cl)C1=NCCN1 (stereo not shown) [Lofexidine]
LPS % cell toxicity [1, 7]: 0%
Fibrin % cell toxicity [2, 8]: 0% and 1%
Quadrant (FIG. 5b) [3, 9]: Q4

CC[C@H]1OC(=O)C[C@@H](O)[C@H](C)[C@@H](O[C@@H]2O[C@H](C)[C@@H](O[C@H]3C[C@@](C)(O)[C@@H](O)[C@H](C)O3)[C@H](N(C)C)[C@H]2O)[C@@H](CC=O)C[C@@H](C)C(=O)/C=C/C(C)=C/[C@@H]1CO[C@@H]1O[C@H](C)[C@@H](O)[C@@H](OC)[C@H]1OC.O=C(O)C(O)C(O)C(=O)O [Tylosin Tartrate]
LPS % cell toxicity [1, 10]: 0%
Fibrin % inhibition [4, 11]: 9%
Quadrant (FIG. 5b) [3, 12]: Q4
LPS % inhibition [5, 13]: 11%

C[C@@H](O)[C@H]1C(=O)N2C(C(=O)O)=C(S[C@@H]3CN[C@H](C(=O)N(C)C)C3)[C@H](C)[C@H]12 [Meropenem]
LPS % cell toxicity [1, 14]: 0%
Fibrin % cell toxicity ([2]; fibrin stimulation, decreased size (<150 μm^2) as marker of toxicity): 1%
Quadrant (FIG. 5b) [3, 9]: Q4

COc1cccc(C2(O)CCCCC2CN(C)C)c1 (stereo not shown) [Tramadol Hydrochloride]
LPS % cell toxicity [1, 10]: 0%
Fibrin % cell toxicity ([2]; 10 μM, fibrin assay, cell size <150 μm^2 as marker of toxicity): 0%

Br.COc1ccc2c3c1O[C@H]1C[C@@H](O)C=C[C@@]31CCN(C)C2 [Galanthamine Hydrobromide, Galantamine]
LPS % cell toxicity [1, 7]: 0%
Fibrin % inhibition [4, 15]: 10%
Quadrant (FIG. 5b) [3, 9]: Q4
LPS % inhibition [5, 16]: 9%

CN(C)[C@@H]1C(=O)C(C(N)=O)=C(O)[C@@]2(O)C(=O)C3=C(O)c4c(O)ccc(Cl)c4[C@@](C)(O)[C@H]3C[C@@H]12
LPS % cell toxicity ([1]; primary HTS, 10 μM, LPS assay, dead cells size <150 μm2): 0%
Fibrin % inhibition ([4]; primary HTS, 10 μM, fibrin-stimulated primary microglia): 27%
Quadrant (FIG. 5b) ([3]; primary HTS, 10 μM): Q4
LPS % inhibition ([5]; primary HTS, 10 μM, LPS-stimulated primary microglia): 23%

CC(=O)[C@@]1(O)CC[C@H]2[C@@H]3CCC4=CC(=O)CC[C@]4(C)[C@H]3CC[C@@]21C [Hydroxyprogesterone]
LPS % cell toxicity [1, 7]: 1%
Fibrin % inhibition [4, 15]: 9%
Quadrant (FIG. 5b) [3, 9]: Q4
LPS % inhibition [5, 16]: 33%

CCN(CC)C(=O)C1(c2ccccc2)CC1CN (stereo not shown) [Milnacipran hydrochloride, reference compound]
LPS % cell toxicity [1, 14]: 1%
IC50 ([4]; 48 h, Table 1, dose response 0.001-20 μM, triplicates, primary rat microglia, 48 h, read-out: Fibrin IC50): 8 µM
IC50 ([4]; Table 3, read-out: Fibrin IC50 (uM) (Suppl. Table 7)): 8 µM
IC50 ([4]; dose response, fibrin-induced microglia activation, read-out: Fibrin IC50): 8 µM
IC50 ([4]; fibrin-induced microglia activation, dose response, read-out: Fibrin IC50 (uM) (Suppl. Table 7)): 8 µM
inhibition at 10 µM ([4]; primary microglia HTS, fibrin stimulation, increased cell size (>800 μm^2) as marker of activation): 72%
Quadrant (FIG. 5b) [3, 12]: Q3
inhibition at 10 µM ([3]; Table 3, read-out: Cherry-picked Hit (Suppl. Table 7)): > 50%
inhibition at 10 µM ([3]; HTS hit classification, read-out: Hit): > 50%
Quadrant (FIG. 5b) ([3]; Table 1, screen at 10 μM): Q3
Quadrant (FIG. 5b) ([3]; Table 3, screen at 10 μM): Q3
Quadrant (FIG. 5b) [3, 9]: Q3
IC50 ([5]; 48 h, Table 1, dose response 0.001-20 μM, triplicates, primary rat microglia, 48 h, read-out: LPS IC50): 20 µM
inhibition at 10 µM ([5]; 48 h, primary microglia HTS, LPS stimulation, increased cell size (>800 μm^2) as marker of activation): 31%
IC50 ([5]; LPS-induced microglia activation, dose response, read-out: LPS IC50 (uM) (Suppl. Table 7)): 20 µM
IC50 ([5]; Table 3, read-out: LPS IC50 (uM) (Suppl. Table 7)): 20 µM
IC50 ([5]; dose response, LPS-induced microglia activation, read-out: LPS IC50): 20 µM

O=[N+]([O-])O[C@H]1CO[C@H]2[C@@H]1OC[C@H]2O[N+](=O)[O-] [Isosorbide Dinitrate]
LPS % cell toxicity [1, 7]: 0%
Fibrin % cell toxicity [2, 8]: 0%

CCNC1(c2cccs2)CCCCC1=O.Cl (stereo not shown) [Tiletamine Hydrochloride]
LPS % cell toxicity [1, 10]: 0%
Fibrin % inhibition [4, 11]: 8%
Quadrant (FIG. 5b) [3, 12]: Q4
LPS % inhibition [5, 13]: 22%

CC(N)C(=O)OC(C)(C)Cc1ccc(Cl)cc1.Cl (stereo not shown) [Alaproclate Hydrochloride, Alaproclate]
LPS % cell toxicity [6]: 0%
Fibrin % inhibition [4, 17]: −7%
Fibrin % cell toxicity [2, 18]: 1%
Quadrant (FIG. 5b) [3, 19]: Q4
LPS % inhibition [5, 20]: 15%

O=C(O)CCCCCCCC(=O)O [Azelaic Acid]
LPS % cell toxicity ([6]; rat): 0%
inhibition at 10 µM [4, 17]: 6%
Fibrin % cell toxicity [2, 18]: 0%
Quadrant (FIG. 5b) [3, 19]: Q4
inhibition at 10 µM [5, 20]: 19%

CC(O)(P(=O)(O)O)P(=O)(O)O [Etidronic acid]
LPS % cell toxicity ([6]; rat): 0%
inhibition at 10 µM [4, 17]: -16%
Fibrin % cell toxicity ([2]; fibrin assay, dead cells (size <150 μm2), compounds at 10 μM): 1%
Quadrant (FIG. 5b) ([3]; classification by fibrin and LPS inhibition, HTS at 10 μM): Q4
inhibition at 10 µM [5, 20]: 18%

CC1=NN(c2ccccc2)C(=O)C1
LPS % cell toxicity [6]: 0%
Fibrin % inhibition [4, 17]: −15%
Fibrin % cell toxicity [2, 18]: 1%
Quadrant (FIG. 5b) [3, 19]: Q4
LPS % inhibition [5, 20]: 15%
